Assay results from patent publication US10472341B2, “Bicyclic tetrahydrothiazepine derivatives useful for the treatment of neoplastic and/or infectious diseases” (APEIRON BIOLOGICS AG, priority 2015, dated 2019).
Read-outs that look alike come from different tables or passages of the source.

What was measured:
[1] = tested on: aCD3/aCD28-stimulated human CD4+-T-cells; assay: IL-2 production and activation markers in aCD3/aCD28 stimulated isolated human CD4+-T-cells; assay type: cell-based; conditions: IL-2 production at 3 μM compound
Method: • Buffy coat content was transferred to sterile plastic bottle and filled up to 480 ml with PBS, and distributed equally to 16×50 ml tubes (30 ml/tube) • Underlayed with ˜11 ml Lymphoprep and centrifuged 20 min (2200 rpm) • The interphase containing lymphocytes was taken off with transfer pipette, cells were washed twice with PBS and pooled to one tube to determine cell count (Coulter Diff ACT) Isolation of Immune Cell Subfractions from PBMCs by MACS • PBMCs were resuspended in MACS buffer (80 μl MACS-buffer/10^7 cells) and cells were isolated with Auto-MACS device using respective kits following manufacturer's recommendations TCR Stimulation and Measurement of T Cell Activation
Isolated T cells were plated in Xvivo medium at 1.5*10 ^5 cells per in 96 well culture plates and TCR-stimulated with anti-CD3/28 mAbs in the presence of compound as indicated. Cytokine production was determined at 24 h or 48 h following TCR stimulation in cell culture supernatants using commercially available ELISA kits (BD and eBioscience) as recommended by the manufacturer. T cell proliferation and CD25 expression (CD25-PC5 reagent purchased from Beckman Coulter) was determined by flow cytometry (Beckman-Coulter FC500) and analysed with Kaluza Software. For measurement of CD69 expression, isolated CD4 and CD8 T cells were plated in Xvivo medium at […] per in 96 well culture plates and TCR-stimulated with anti-CD3/28 mAbs in the presence of compound. CD69 expression was determined at 24 h following TCR stimulation by flow cytometry (CD4eF450, CD8APCeF780 and CD69-PC7 reagent purchased from eBioscience) and analysed with Kaluza Software.
Buffy coats were obtained from Austrian Red Cross, diluted 3 fold with PBS and layered onto an isotonic Ficoll separating solution d=1.077 g/m in 50 ml centrifuge tubes. The tubes were centrifuged at 914 g for 25 min at room temperature with the brakes off. The PBMC layer was removed and washed twice with ice-cold PBS. CD4 T cells were isolated using CD4 microbeads (Milteny) and the AutoMACS device following manufacturer's instructions.
Compound examples of the present invention were classified according to the following activity criteria and are listed in Table 4a: • Activity Class A: IL-2 production at 3 μM compound concentration >10 ng/mL • Activity Class B: IL-2 production at 3 μM compound concentration between 2-10 ng/mL • Activity Class C: IL-2 production at 3 μM compound concentration between 2-fold increase as compared to mean IL-2 production of stimulated cells in the absence of compounds and <2 ng/mL

[2] = tested on: aCD3/aCD28-stimulated human PBMCs; assay: Cytokine production in aCD3/aCD28 stimulated human PBMCs; assay type: cell-based; conditions: PBMC, 18 h
Method: In order to determine the immune modulatory effect of compounds of compounds of the present invention in human PBMCs, compounds were assessed in the following assay set-up:
Buffy coats were obtained from a local hospital, diluted 3 fold with PBS and layered onto an isotonic Ficoll separating solution d=1.077 g/mL in 50 mL centrifuge tubes. The tubes were centrifuged at 914 g for 25 min at room temperature with the brakes off. The PBMC layer was removed and washed twice with ice-cold PBS. Erythrocytes were lysed by addition of ddH2O and cells were resuspended in X-Vivo15 (Lonza).
1e6 cells/mL were stimulated with soluble anti CD3/CD28 antibodies (1 μg/mL both, clones OKT3 and 28.2) in the presence of described compounds. Cells were incubated for 18 h at 37° C., 5% CO2. Assay plates were centrifuged at 400 g for 5 min and supernatants harvested. Cytokine concentration in tissue culture supernatants were determined with MSD or HTRF kits (MSD and Cisbio), according to manufacturer's instructions.

[3] = enhancement of IFN-γ production, read-out: Activity Class IFN-γ
[4] = enhancement of IL-2 production, read-out: Activity Class IL-2

Compound	Activity Class CD4+ [1]	EC50 [2, 3]	EC50 [2, 4]
Cl.N[C@H]1CS(=O)(=O)c2cc(F)c(C(=O)N[C@@H]3CC3(F)F)cc2N(Cc2ccc(Cl)cc2)C1=O (single isomer, unassigned) [Example 106]	B (IL-2 production at 3 μM compound concentration between 2-10 ng/mL)		
Cl.N[C@H]1CSc2ccc(C(=O)NC3CCOCC3)cc2N(Cc2ccc(OC(F)(F)F)cc2)C1=O [Example 8, (3R)-3-amino-N-(oxan-4-yl)-4-oxo-5-{[4-(trifluoromethoxy)phenyl]methyl}-2,3,4,5-tetrahydro-1,5-benzothiazepine-7-carboxamide hydrochloride]	C (IL-2 production at 3 μM compound concentration between 2-fold increase as compared to mean IL-2 production of stimulated cells in the absence of compounds and <2 ng/mL)		
CCCCNC(=O)c1ccc2c(c1)N(Cc1ccc(N3CCOCC3)cc1)C(=O)[C@@H](N)CS2.Cl [Example 13, (3R)-3-amino-N-butyl-5-{[4-(morpholin-4-yl)phenyl]methyl}-4-oxo-2,3,4,5-tetrahydro-1,5-benzothiazepine-7-carboxamide hydrochloride]	C (IL-2 production at 3 μM compound concentration between 2-fold increase as compared to mean IL-2 production of stimulated cells in the absence of compounds and <2 ng/mL)		
Cl.N[C@H]1CSc2cc(F)c(C(=O)NC3CCOCC3)cc2N(Cc2ccc(OC(F)(F)F)cc2)C1=O [Example 14, (3R)-3-amino-8-fluoro-N-(oxan-4-yl)-4-oxo-5-{[4-(trifluoromethoxy)phenyl]methyl}-2,3,4,5-tetrahydro-1,5-benzothiazepine-7-carboxamide hydrochloride]	C (IL-2 production at 3 μM compound concentration between 2-fold increase as compared to mean IL-2 production of stimulated cells in the absence of compounds and <2 ng/mL)		
CC(C)NC(=O)c1cc2c(cc1F)SC[C@H](N)C(=O)N2Cc1ccc(OC(F)(F)F)cc1.Cl [Example 15, (3R)-3-amino-8-fluoro-4-oxo-N-(propan-2-yl)-5-{[4-(trifluoromethoxy)phenyl]-methyl}-2,3,4,5-tetrahydro-1,5-benzothiazepine-7-carboxamide hydrochloride]	B (IL-2 production at 3 μM compound concentration between 2-10 ng/mL)		
Cl.N[C@H]1CSc2cc(F)c(C(=O)NCc3ccccc3)cc2N(Cc2ccc(OC(F)(F)F)cc2)C1=O [Example 16, (3R)-3-amino-N-benzyl-8-fluoro-4-oxo-5-{[4-(trifluoromethoxy)phenyl]methyl}-2,3,4,5-tetrahydro-1,5-benzothiazepine-7-carboxamide hydrochloride]	B (IL-2 production at 3 μM compound concentration between 2-10 ng/mL)		
CC(=O)NCCCCCOc1ccc(CNC(=O)c2ccc3c(c2)N(Cc2ccc(OC(F)(F)F)cc2)C(=O)[C@@H](N)CS3)cc1.Cl [Example 19, (3R)-3-amino-N-({4-[(5-acetamidopentyl)oxy]phenyl}methyl)-4-oxo-5-{[4-(trifluoromethoxy)phenyl]methyl}-2,3,4,5-tetrahydro-1,5-benzothiazepine-7-carboxamide hydrochloride]	C (IL-2 production at 3 μM compound concentration between 2-fold increase as compared to mean IL-2 production of stimulated cells in the absence of compounds and <2 ng/mL)		
CC(C)(C)c1cc(NC(=O)c2ccc3c(c2)N(Cc2ccc(Cl)cc2)C(=O)[C@@H](N)CS3)no1.Cl [Example 24, (3R)-3-amino-N-(5-tert-butyl-1,2-oxazol-3-yl)-5-[(4-chlorophenyl)methyl]-4-oxo-2,3,4,5-tetrahydro-1,5-benzothiazepine-7-carboxamide hydrochloride]	C (IL-2 production at 3 μM compound concentration between 2-fold increase as compared to mean IL-2 production of stimulated cells in the absence of compounds and <2 ng/mL)		
Cl.N[C@H]1CSc2ccc(C(=O)NCc3ccc(F)cc3)cc2N(Cc2ccc(-c3csnn3)cc2)C1=O [Example 32, (3R)-3-amino-N-[(4-fluorophenyl)methyl]-4-oxo-5-{[4-(1,2,3-thiadiazol-4-yl)phenyl]-methyl}-2,3,4,5-tetrahydro-1,5-benzothiazepine-7-carboxamide hydrochloride]	C (IL-2 production at 3 μM compound concentration between 2-fold increase as compared to mean IL-2 production of stimulated cells in the absence of compounds and <2 ng/mL)		
N[C@H]1CSc2ccc(C(=O)NCC3CCOCC3)cc2N(Cc2ccc(F)cc2)C1=O [Example 45, (3R)-3-amino-5-[(4-fluorophenyl)methyl]-N-(oxan-4-ylmethyl)-4-oxo-2,3,4,5-tetrahydro-1,5-benzothiazepine-7-carboxamide]	C (IL-2 production at 3 μM compound concentration between 2-fold increase as compared to mean IL-2 production of stimulated cells in the absence of compounds and <2 ng/mL)		
CCCCNC(=O)c1ccc2c(c1)N(Cc1ccc(C(N)=O)cc1)C(=O)[C@@H](N)CS2.Cl [Example 47, (3R)-3-amino-N-butyl-5-[(4-carbamoylphenyl)methyl]-4-oxo-2,3,4,5-tetrahydro-1,5-benzothiazepine-7-carboxamide hydrochloride]	C (IL-2 production at 3 μM compound concentration between 2-fold increase as compared to mean IL-2 production of stimulated cells in the absence of compounds and <2 ng/mL)		
C[C@H](NC(=O)c1ccc2c(c1)N(Cc1ccc(Cl)cc1)C(=O)[C@@H](N)CS2)c1ccc(F)cc1.Cl [Example 49, (3R)-3-amino-5-[(4-chlorophenyl)methyl]-N-[(1S)-1-(4-fluorophenyl)ethyl]-4-oxo-2,3,4,5-tetrahydro-1,5-benzothiazepine-7-carboxamide hydrochloride]	C (IL-2 production at 3 μM compound concentration between 2-fold increase as compared to mean IL-2 production of stimulated cells in the absence of compounds and <2 ng/mL)		
Cl.N[C@H]1CSc2cc(F)c(C(=O)NNc3ccc(F)cc3)cc2N(Cc2ccc(Cl)cc2)C1=O [Example 52, (3R)-3-amino-5-[(4-chlorophenyl)methyl]-8-fluoro-N′-(4-fluorophenyl)-4-oxo-2,3,4,5-tetrahydro-1,5-benzothiazepine-7-carbohydrazide hydrochloride]	C (IL-2 production at 3 μM compound concentration between 2-fold increase as compared to mean IL-2 production of stimulated cells in the absence of compounds and <2 ng/mL)		
C#CCCCNC(=O)c1cc2c(cc1F)S(=O)(=O)C[C@H](N)C(=O)N2Cc1ccc(Cl)cc1 [Example 174, (3R)-3-amino-5-[(4-chlorophenyl)methyl]-8-fluoro-1,1,4-trioxo-N-(pent-4-yn-1-yl)-2,3,4,5-tetrahydro-1λ^6,5-benzothiazepine-7-carboxamide]		1.58 to 5.01 µM	1.58 to 5.01 µM
COc1ccc(CNC(=O)c2ccc3c(c2)N(Cc2ccc(Cl)cc2)C(=O)[C@@H](N)CS3(=O)=O)cn1 [Example 177, (3R)-3-amino-5-[(4-chlorophenyl)methyl]-N-[(6-methoxypyridin-3-yl)methyl]-1,1,4-trioxo-2,3,4,5-tetrahydro-1λ^6,5-benzothiazepine-7-carboxamide]		< 1.58 µM	1.58 to 5.01 µM
N[C@H]1CS(=O)(=O)c2ccc(C(=O)NC3CC4(COC4)C3)cc2N(Cc2ccc(Cl)cc2)C1=O [Example 181, (3R)-3-amino-5-[(4-chlorophenyl)methyl]-N-{2-oxaspiro[3.3]heptan-6-yl}-1,1,4-trioxo-2,3,4,5-tetrahydro-1λ^6,5-benzothiazepine-7-carboxamide]		> 5.01 µM	> 5.01 µM
CCN[C@H]1CS(=O)(=O)c2cc(F)c(C(=O)NCCCC(F)(F)F)cc2N(Cc2ccc(Cl)cc2)C1=O [Example 182, (3R)-5-[(4-chlorophenyl)methyl]-3-(ethylamino)-8-fluoro-1,1,4-trioxo-N-(4,4,4-trifluorobutyl)-2,3,4,5-tetrahydro-1λ^6,5-benzothiazepine-7-carboxamide]		1.58 to 5.01 µM	> 5.01 µM
